Source: ChEMBL document CHEMBL1158545, “3'-(1,2,3-Triazol-1-yl)-3'-deoxythymidine analogs as substrates for human and Ureaplasma parvum thymidine kinase for structure-activity investigations” (Bioorg Med Chem, 2010)

Experiments:
[1] = biological target: T1, Thymidine kinase, cytosolic (Homo sapiens, UniProt P04183); assay: Inhibition of human TK1 by liquid scintillation counting
T1 sequence (P04183 whole entry): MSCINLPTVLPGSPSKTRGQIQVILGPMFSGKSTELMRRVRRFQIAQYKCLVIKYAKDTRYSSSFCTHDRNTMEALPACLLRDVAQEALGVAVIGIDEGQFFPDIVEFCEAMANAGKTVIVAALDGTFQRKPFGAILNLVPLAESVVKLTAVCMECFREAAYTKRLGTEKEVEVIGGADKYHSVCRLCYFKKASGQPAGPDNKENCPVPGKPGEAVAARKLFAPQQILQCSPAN

[2] = biological target: T2, Thymidine kinase (Ureaplasma parvum serovar 3 (strain ATCC 700970)) (UniProt Q9PPP5); assay: Ratio of Vmax to Km for Ureaplasma parvum thymidine kinase relative to dThd
T2 sequence (whole entry): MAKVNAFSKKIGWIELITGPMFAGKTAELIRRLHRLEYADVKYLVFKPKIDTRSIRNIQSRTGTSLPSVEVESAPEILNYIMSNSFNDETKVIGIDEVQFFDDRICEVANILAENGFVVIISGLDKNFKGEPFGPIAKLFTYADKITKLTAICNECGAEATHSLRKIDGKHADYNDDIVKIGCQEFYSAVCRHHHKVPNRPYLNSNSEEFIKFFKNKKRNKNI

[3] = biological target: T3, Thymidine kinase, cytosolic (Homo sapiens) (UniProt P04183); assay: Ratio of Vmax to Km for human TK1 relative to […]
T3 sequence (whole entry): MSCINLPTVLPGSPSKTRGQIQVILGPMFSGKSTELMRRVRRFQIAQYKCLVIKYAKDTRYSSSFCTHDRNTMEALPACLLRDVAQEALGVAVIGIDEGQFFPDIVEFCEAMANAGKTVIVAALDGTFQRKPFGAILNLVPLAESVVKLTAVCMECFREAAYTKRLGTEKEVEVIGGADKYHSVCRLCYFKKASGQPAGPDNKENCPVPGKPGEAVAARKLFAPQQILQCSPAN

[4] = biological target: T3, Thymidine kinase, cytosolic (Homo sapiens); assay: Activity of human TK1 relative to ATP; set-up: concentration or dose not given beside the values
[5] = biological target: T2, Thymidine kinase (Ureaplasma parvum serovar 3 (strain ATCC 700970)); assay: Activity of Ureaplasma parvum thymidine kinase relative to dThd
[6] = biological target: T4, Thymidine kinase (Ureaplasma parvum serovar 3 (strain ATCC 700970), UniProt Q9PPP5); assay: Inhibition of Ureaplasma parvum thymidine kinase by liquid scintillation counting
T4 sequence (Q9PPP5 whole entry): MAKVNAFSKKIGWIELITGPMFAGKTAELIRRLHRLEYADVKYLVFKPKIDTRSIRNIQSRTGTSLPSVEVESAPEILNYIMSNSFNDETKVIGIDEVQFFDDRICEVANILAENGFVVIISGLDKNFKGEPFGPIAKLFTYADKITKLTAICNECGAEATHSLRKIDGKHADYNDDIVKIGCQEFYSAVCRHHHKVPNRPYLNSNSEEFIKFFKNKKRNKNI

[7] = substrate: CCCc1cn([C@H]2C[C@H](n3cc(C)c(=O)[nH]c3=O)O[C@@H]2CO)nn1; conditions: Homo sapiens
[8] = substrate: Cc1cn([C@H]2C[C@H](n3cc(CCc4ccccc4)nn3)[C@@H](CO)O2)c(=O)[nH]c1=O; conditions: Homo sapiens
[9] = substrate: Cc1cn([C@H]2C[C@H](n3cc(-c4ccccn4)nn3)[C@@H](CO)O2)c(=O)[nH]c1=O; conditions: Homo sapiens
[10] = substrate: CCCCCc1cn([C@H]2C[C@H](n3cc(C)c(=O)[nH]c3=O)O[C@@H]2CO)nn1; conditions: Homo sapiens
[11] = substrate: Cc1cn([C@H]2C[C@H](n3cc(-c4ccccc4)nn3)[C@@H](CO)O2)c(=O)[nH]c1=O; conditions: Homo sapiens
[12] = substrate: Cc1cn([C@H]2C[C@H](n3cc(C(C)(C)C)nn3)[C@@H](CO)O2)c(=O)[nH]c1=O; conditions: Homo sapiens
[13] = substrate: Cc1cn([C@H]2C[C@H](n3cc(Cc4ccccc4)nn3)[C@@H](CO)O2)c(=O)[nH]c1=O; conditions: Homo sapiens
[14] = substrate: Cc1cn([C@H]2C[C@H](N=[N+]=[N-])[C@@H](CO)O2)c(=O)[nH]c1=O; conditions: Homo sapiens
[15] = substrate: CC(=O)OCc1cn([C@H]2C[C@H](n3cc(C)c(=O)[nH]c3=O)O[C@@H]2CO)nn1; conditions: Homo sapiens
[16] = substrate: CCCc1cn([C@H]2C[C@H](n3cc(C)c(=O)[nH]c3=O)O[C@@H]2CO)nn1; conditions: Ureaplasma parvum
[17] = substrate: Cc1cn([C@H]2C[C@H](n3cc(CCc4ccccc4)nn3)[C@@H](CO)O2)c(=O)[nH]c1=O; conditions: Ureaplasma parvum
[18] = substrate: Cc1cn([C@H]2C[C@H](n3cc(-c4ccccn4)nn3)[C@@H](CO)O2)c(=O)[nH]c1=O; conditions: Ureaplasma parvum
[19] = substrate: CCCCCc1cn([C@H]2C[C@H](n3cc(C)c(=O)[nH]c3=O)O[C@@H]2CO)nn1; conditions: Ureaplasma parvum
[20] = substrate: Cc1cn([C@H]2C[C@H](n3cc(-c4ccccc4)nn3)[C@@H](CO)O2)c(=O)[nH]c1=O; conditions: Ureaplasma parvum
[21] = substrate: Cc1cn([C@H]2C[C@H](n3cc(C(C)(C)C)nn3)[C@@H](CO)O2)c(=O)[nH]c1=O; conditions: Ureaplasma parvum
[22] = substrate: Cc1cn([C@H]2C[C@H](n3cc(Cc4ccccc4)nn3)[C@@H](CO)O2)c(=O)[nH]c1=O; conditions: Ureaplasma parvum
[23] = substrate: Cc1cn([C@H]2C[C@H](N=[N+]=[N-])[C@@H](CO)O2)c(=O)[nH]c1=O; conditions: Ureaplasma parvum
[24] = substrate: CC(=O)OCc1cn([C@H]2C[C@H](n3cc(C)c(=O)[nH]c3=O)O[C@@H]2CO)nn1; conditions: Ureaplasma parvum

`Cc1cn([C@H]2C[C@H](n3cc(-c4ccccn4)nn3)[C@@H](CO)O2)c(=O)[nH]c1=O` showed an IC50 [1] of 53 µM, an Activity [2] of 1.1% and an Activity [3] of 0.5%. The Activity [4] was 3.1% and the Activity [5] was 7.1%.

Molecule `Cc1cn([C@H]2C[C@H](n3cc(-c4ccccc4)nn3)[C@@H](CO)O2)c(=O)[nH]c1=O` has an IC50 [1] of 99 µM, an Activity [2] of 0.7% and an Activity [3] of 0.2%. The Activity [4] was 2.1% and the Activity [5] was 5.5%.

`Cc1cn([C@H]2C[C@H](n3cc(C(C)(C)C)nn3)[C@@H](CO)O2)c(=O)[nH]c1=O` was tested, and the Activity [2] was 0.15%, the Activity [3] was 0.07% and the Activity [4] was 2.2%. For the same molecule, the Activity [5] was 4.7%.

With `Cc1cn([C@H]2C[C@H](n3cc(CCO)nn3)[C@@H](CO)O2)c(=O)[nH]c1=O` the Activity [4] was 2.2% and the Activity [5] was 4.1%.

With `Cc1cn([C@H]2C[C@H](n3cc(CCc4ccccc4)nn3)[C@@H](CO)O2)c(=O)[nH]c1=O` the IC50 [1] was 60 µM, the Activity [2] was 0.8% and the Activity [3] was 0.08%. For the same molecule, the Activity [4] was 2.4% and the Activity [5] was 12.3%.

With `CC(=O)OCc1cn([C@H]2C[C@H](n3cc(C)c(=O)[nH]c3=O)O[C@@H]2CO)nn1` the Activity [2] was 0.6%, the Activity [3] was 0.1% and the Activity [4] was 2.4%. The Activity [5] was 3.9%.

For `Cc1cn([C@H]2C[C@H](N=[N+]=[N-])[C@@H](CO)O2)c(=O)[nH]c1=O`, the Activity [2] was 43%, the Activity [3] was 50% and the Activity [4] was 47.3%. The Activity [5] was 27.8%.

For `CCCCCc1cn([C@H]2C[C@H](n3cc(C)c(=O)[nH]c3=O)O[C@@H]2CO)nn1`, the Activity [2] was 1.6%, the Activity [3] was 0.3% and the Activity [4] was 1.9%. It also gave an Activity [5] of 7.2%.

`Cc1cn([C@H]2C[C@H](n3cc(Cc4ccccc4)nn3)[C@@H](CO)O2)c(=O)[nH]c1=O` was tested, and the IC50 [1] was 78 µM, the Activity [2] was 0.8% and the Activity [3] was 0.1%. For the same molecule, the IC50 [6] was 73 µM, the Activity [4] was 4.8% and the Activity [5] was 11.6%.

In the case of `Cc1cn([C@H]2C[C@H](n3cc(-c4ccc(F)cc4)nn3)[C@@H](CO)O2)c(=O)[nH]c1=O`, the IC50 [1] is reported as 44 µM, the Activity [3] is reported as 1.1% and the IC50 [6] is reported as 71 µM. The Activity [4] was 2.6% and the Activity [5] was 13.7%.

`COCc1cn([C@H]2C[C@H](n3cc(C)c(=O)[nH]c3=O)O[C@@H]2CO)nn1` showed an Activity [4] of 1.3% and an Activity [5] of 1.6%.

With `CCCc1cn([C@H]2C[C@H](n3cc(C)c(=O)[nH]c3=O)O[C@@H]2CO)nn1` the Activity [2] was 0.5%, the Activity [3] was 0.1% and the Activity [4] was 2.7%. It also gave an Activity [5] of 6.5%.

B1: Thymidine kinase, cytosolic (Homo sapiens), P04183 (protein)
chain: MSCINLPTVLPGSPSKTRGQIQVILGPMFSGKSTELMRRVRRFQIAQYKCLVIKYAKDTRYSSSFCTHDRNTMEALPACLLRDVAQEALGVAVIGIDEGQFFPDIVEFCEAMANAGKTVIVAALDGTFQRKPFGAILNLVPLAESVVKLTAVCMECFREAAYTKRLGTEKEVEVIGGADKYHSVCRLCYFKKASGQPAGPDNKENCPVPGKPGEAVAARKLFAPQQILQCSPAN
B1 gave a Km [7] of 138 µM, a Km [8] of 204 µM and a Km [9] of 33 µM. For the same molecule, the Km [10] was 75 µM, the Km [11] was 57 µM and the Km [12] was 243 µM. It also gave a Km [13] of 174 µM, a Km [14] of 3.5 µM and a Km [15] of 114 µM.

B2: Thymidine kinase (Ureaplasma parvum serovar 3 (strain ATCC 700970)), Q9PPP5 (protein)
chain: MAKVNAFSKKIGWIELITGPMFAGKTAELIRRLHRLEYADVKYLVFKPKIDTRSIRNIQSRTGTSLPSVEVESAPEILNYIMSNSFNDETKVIGIDEVQFFDDRICEVANILAENGFVVIISGLDKNFKGEPFGPIAKLFTYADKITKLTAICNECGAEATHSLRKIDGKHADYNDDIVKIGCQEFYSAVCRHHHKVPNRPYLNSNSEEFIKFFKNKKRNKNI
For B2, the Km [16] was 122 µM, the Km [17] was 104 µM and the Km [18] was 30 µM. It also gave a Km [19] of 32 µM, a Km [20] of 40 µM and a Km [21] of 259 µM. It also gave a Km [22] of 85 µM, a Km [23] of 2.7 µM and a Km [24] of 78 µM.
